US12624039B2, “BTK inhibitors” (DIZAL (JIANGSU) PHARMACEUTICAL CO., LTD., priority 2020, dated 2026)
≈ marks a conversion by molar mass, not a printed value. Read-outs that look alike come from different tables or passages of the source.

Experiments:
[1] = Protein binding in human plasma by equilibrium dialysis; type: in vitro ADME; settings: 18 hours at 37° C.; for fraction unbound at 18 h, 5 μM: human, plasma, pH 7.4, human plasma, read-out: hPPB (fu %); for hPPB (fu %): human plasma, 5 μM, fraction unbound
Method: (§1) [formula] DF means the dilution factor. Procedure for Protein Binding Measurements in Human Plasma by Using Equilibrium Dialysis
Add 597 μL of blank plasma into each vial of a new plastic plate or separate plastic tube by addition of 3 μL of the working solution of each cassette, vortex at 1,000 rpm for 5 minutes. The final percent volume of organic solvent is 0.5% and the final concentration for test compound is 5 μM. Immediately transfer 50 μL of the spiked plasma suspension to a 96-well plate to act as T=0 control sample. The samples are treated the same as the samples after incubation. Place all remaining spiked plasma in the incubator for the duration of the study.
Place inserts open end up into the wells of the base plate. Add 500 μL of phosphate buffer (pH 7.4) to the buffer chamber, which is indicated by the white ring. Add 300 μL of spiked plasma sample into the sample chamber, which is indicated by the red ring. Cover the unit with gas permeable lid and incubate for 18 hours at 37° C. at 300 rpm with 5% CO2 on an orbital shaker in the CO2 incubator. At the end of incubation, remove lid and pipette 50 μL of post-dialysis samples from both buffer and plasma chambers into separated 96-well plate for analysis, respectively.
At the same time, the remaining spiked plasma sample in the plastic plate or separate plastic tube is incubated for 18 hours at 37° C. with 5% CO2 in the CO2 incubator. At T=18 hours, transfer 50 μL of the original spiked plasma suspension to the 96-well plate for analysis.
Add 50 μL of Human plasma to the buffer samples, and an equal volume of PBS to the collected plasma samples. Vortex the plate at 1,000 rpm for 2 minutes and add 400 μL of acetonitrile containing an appropriate internal standard (IS) to precipitate protein and release compound. Vortex at 1,000 rpm for 10 minutes. Centrifuge for 30 minutes at 4,000 rpm. Transfer 250 μl of the supernatant to new 96-well plates and centrifuge again (4,000 rpm, 30 minutes). Then transfer 100 μL of the supernatant to new 96-well plates for analysis. Add 100 μL of distilled water to each sample and vortex for 5 minutes at 1,000 rpm for analysis by LC-MS/MS. All compounds are tested in singlicate at 5 μM in human plasma.
All calculations are carried out using Microsoft Excel.
Calculate the percentage of unbound, percentage of bound and recovery of test compound as follows: […]

[2] = Log D determination (octanol/phosphate buffer); type: physicochemical; settings: 25° C.
Method: 10 μL of working solution of each cassette is placed in order into respective 96-well rack position (Log D plate). Add 500 μL of saturated octanol into each vial of the above cap-less Log D plate followed by the addition of 500 μL of saturated phosphate buffer. Seal with a moulded PTFE/SIL 96-Well Plate Cover.
The samples are centrifuged at 4,000 rpm at 25° C. for 30 minutes to separate the phases. Pipette and syringe are used to pipette about 100 μL from the octanol and buffer phases to a new 96-well plate, respectively.
5 μL of octanol sample is transferred to a new 96-well plate, followed by addition of 495 μL of a mixture of H2O and acetonitrile containing internal standard (1:1) as 100 fold octanol samples. Vortex for 5 minutes at 1,000 rpm.
50 μL of 100 fold samples are transferred to new 96-well plate, followed by addition of 450 μL of a mixture of H2O and acetonitrile containing internal standard (1:1) as 1,000 fold octanol samples. Vortex for 5 minutes at 1,000 rpm.
The 1,000 folds octanol samples are serially diluted into 10,000, 100,000 and 1,000,000 folds with a mixture of H2O and acetonitrile containing internal standard (1:1).
50 μL of buffer samples are transferred to new 96-well plate, followed by addition of 450 μL of a mixture of H2O and acetonitrile containing internal standard (1:1) as 10 folds buffer samples. Vortex for 5 minutes at 1,000 rpm.
The 10 folds buffer samples are serially diluted into 100, 1,000 and 10,000 folds with a mixture of H2O and acetonitrile containing internal standard (1:1). The samples are evaluated by LC/MS/MS analysis. All compounds are tested in singlicate.
All calculations are carried out using Microsoft Excel. The concentrations of test compound in octanol/buffer solution are evaluated by LC/MS/MS. Calculate the Log D value of the test compound as follows:
as §1

[3] = target: T1, Recombinant BTK(C481S) (Homo sapiens, UniProt Q06187, C481S); assay: BTK C481S HTRF kinase assay; type: biochemical; settings: 30 min pre-incubation, 120 min reaction
T1 construct: purchased SignalChem
Method: [The procedure below names another variant; the source lists this variant under the same test.] Recombinant BTK wild type (BTK WT) was purchased from Thermo fisher.
In brief, recombinant kinases were pre-incubated in the presence or absence of compound at room temperature for 30 minutes. The reaction was initiated by the addition of the ATP and substrate peptide which could be phosphorylated by kinases in the reaction. After 120 minutes incubation, the reaction was stopped by the addition of the detection reagent mix containing EDTA.

[4] = target: T2, p-BTK (Phospho-Btk Tyr223) in TMD-8 cells (Homo sapiens, UniProt Q06187); assay: TMD8 cell line p-BTK Elisa assay; type: cell-based; settings: for Maximal Inhibition Level: p-BTK ELISA; for IC50: pervanadate 100 μM, Tyr223 ELISA
T2 construct: endogenous in cells; host or cells: TMD-8
Method: The test compounds were added to the cells and cells were incubated for 0.5 hour at 37° C., 5% CO2. Then pervanadate solution was added to the cells to make a final concentration of 100 μM, and cells were incubated for a further 1 hour at 37° C., 5% CO2. […] The plate was read on a Multiscan Spectrum reader set to 450 nm wavelengths.

[5] = Hu Mic Clint; type: in vitro ADME, human; settings: for microsomal CLint: human, microsomes
[6] = DMSO solubility; type: physicochemical

T2 sequence (Q06187 whole entry): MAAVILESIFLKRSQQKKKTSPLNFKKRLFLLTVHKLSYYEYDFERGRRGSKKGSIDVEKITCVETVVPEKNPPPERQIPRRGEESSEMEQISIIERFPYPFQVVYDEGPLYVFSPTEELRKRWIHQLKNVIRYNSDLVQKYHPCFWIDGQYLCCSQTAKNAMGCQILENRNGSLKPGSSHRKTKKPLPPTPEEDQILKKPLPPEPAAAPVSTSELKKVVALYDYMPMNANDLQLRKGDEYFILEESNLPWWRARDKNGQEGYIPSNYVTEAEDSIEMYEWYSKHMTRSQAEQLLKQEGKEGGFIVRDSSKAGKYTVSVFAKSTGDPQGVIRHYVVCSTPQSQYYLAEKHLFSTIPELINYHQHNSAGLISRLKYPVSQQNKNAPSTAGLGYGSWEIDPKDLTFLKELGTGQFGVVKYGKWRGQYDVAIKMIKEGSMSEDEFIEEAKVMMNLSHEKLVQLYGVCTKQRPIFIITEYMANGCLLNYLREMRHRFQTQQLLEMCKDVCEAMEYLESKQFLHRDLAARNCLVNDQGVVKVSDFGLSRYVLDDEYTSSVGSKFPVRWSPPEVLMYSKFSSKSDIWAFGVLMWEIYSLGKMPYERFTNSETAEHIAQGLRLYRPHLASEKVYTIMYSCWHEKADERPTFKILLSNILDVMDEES
T1 sequence (Q06187 whole entry C481S): as the sequence (Q06187 whole entry) above, with C481S counted along it

## Nc1nccn2c(C3CCC(CO)OC3)nc(-c3ccc(Oc4ccccc4)cc3F)c12 (single isomer, unassigned) [Compound 2, Trans-(5-(8-amino-1-(2-fluoro-4-phenoxyphenyl)imidazo[1,5-a]pyrazin-3-yl)tetrahydro-2H-pyran-2-yl)methanol]
[1]
  fraction unbound at 18 h, 5 μM: 0.106
[2]
  logD at 2 h: 3.01
[3]
  IC50: 0.66 nM
[4]
  Maximal Inhibition Level: 98.4%
  IC50: 29.1 nM
[5]
  microsomal CLint: 12.7 µL/min/mg
[6]
  solubility: 15.1 µM (≈ 6.56 µg/mL)

## Nc1nccn2c(C3CCC(CO)OC3)nc(-c3ccc(Oc4ccccc4)cc3F)c12 (single isomer, unassigned) [Compound 3, Trans-(5-(8-amino-1-(2-fluoro-4-phenoxyphenyl)imidazo[1,5-a]pyrazin-3-yl)tetrahydro-2H-pyran-2-yl)methanol]
[1]
  hPPB (fu %): 11.9%
[2]
  logD: 2.88
[3]
  IC50: 6.59 nM
[4]
  Maximal Inhibition Level: 96.2%
  IC50: 78.4 nM
[5]
  Hu Mic Clint: 23.7 µL/min/mg
[6]
  solubility: 34.1 µM (≈ 14.8 µg/mL)

## Nc1nccn2c(C3CCC(CO)OC3)nc(-c3ccc(Oc4ccccc4)c(F)c3F)c12 (single isomer, unassigned) [Compound 4, (5-(8-amino-1-(2,3-difluoro-4-phenoxyphenyl)imidazo[1,5-a]pyrazin-3-yl)tetrahydro-2H-pyran-2-yl)methanol]
[1]
  fraction unbound at 18 h, 5 μM: 0.088
[2]
  logD at 2 h: 3.1
[3]
  IC50: 0.61 nM
[4]
  Maximal Inhibition Level: 97.4%
  IC50: 30.7 nM
[5]
  microsomal CLint: 7.44 µL/min/mg
[6]; kinetic from dmso stock
  solubility: 63.1 µM (≈ 28.6 µg/mL)

## Nc1nccn2c(C3CCC(CO)OC3)nc(-c3ccc(Oc4ccccc4)c(F)c3F)c12 (single isomer, unassigned) [Compound 5, (5-(8-amino-1-(2,3-difluoro-4-phenoxyphenyl)imidazo[1,5-a]pyrazin-3-yl)tetrahydro-2H-pyran-2-yl)methanol]
[1]
  hPPB (fu %): 9.0%
[2]
  logD: 2.89
[3]
  IC50: 5.42 nM
[4]
  Maximal Inhibition Level: 95.8%
  IC50: 48.7 nM
[5]
  Hu Mic Clint: 13.0 µL/min/mg
[6]
  solubility: 61.9 µM (≈ 28 µg/mL)

## Nc1nccn2c(C3CCC(CO)OC3)nc(-c3ccc(Oc4cccc(F)c4F)cc3)c12 (single isomer, unassigned) [Compound 6, (5-(8-amino-1-(4-(2,3-difluorophenoxy)phenyl)imidazo[1,5-a]pyrazin-3-yl)tetrahydro-2H-pyran-2-yl)methanol]
[1]
  fraction unbound at 18 h, 5 μM: 0.075
[2]
  logD at 2 h: 3.28
[3]
  IC50: 0.42 nM
[4]
  Maximal Inhibition Level: 98.8%
  IC50: 26.2 nM
[5]
  microsomal CLint: 8.8 µL/min/mg
[6]; kinetic from dmso stock
  solubility: 43.9 µM (≈ 19.9 µg/mL)

## Nc1nccn2c(C3CCC(CO)OC3)nc(-c3ccc(Oc4cccc(F)c4F)cc3)c12 (single isomer, unassigned) [Compound 7, (5-(8-amino-1-(4-(2,3-difluorophenoxy)phenyl)imidazo[1,5-a]pyrazin-3-yl)tetrahydro-2H-pyran-2-yl)methanol]
[1]
  hPPB (fu %): 7.3%
[2]
  logD: 3.19
[3]
  IC50: 1.53 nM
[4]
  Maximal Inhibition Level: 97.9%
  IC50: 138 nM
[5]
  Hu Mic Clint: 13.3 µL/min/mg
[6]
  solubility: 45.8 µM (≈ 20.7 µg/mL)

## Nc1ncnn2c(C3CCC(CO)OC3)nc(-c3ccc(Oc4ccccc4)cc3F)c12 (single isomer, unassigned) [Compound 8, (5-(4-amino-5-(2-fluoro-4-phenoxyphenyl)imidazo[5,1-f][1,2,4]triazin-7-yl)tetrahydro-2H-pyran-2-yl)methanol]
[1]
  fraction unbound at 18 h, 5 μM: 0.093
[2]
  logD at 2 h: 3.1
[3]
  IC50: 2.8 nM
[4]
  Maximal Inhibition Level: 100.9%
  IC50: 42.1 nM
[5]
  Hu Mic Clint: 41.3 µL/min/mg
[6]
  solubility: 21.0 µM (≈ 9.14 µg/mL)

## Nc1ncnn2c(C3CCC(CO)OC3)nc(-c3ccc(Oc4ccccc4)cc3F)c12 (single isomer, unassigned) [Compound 9, (5-(4-amino-5-(2-fluoro-4-phenoxyphenyl)imidazo[1,5-a][1,2,4]triazin-7-yl)tetrahydro-2H-pyran-2-yl)methanol]
[1]
  hPPB (fu %): 5.8%
[2]
  logD: 3.00
[3]
  IC50: 6.42 nM
[4]
  Maximal Inhibition Level: 107.7%
  IC50: 124 nM
[5]
  Hu Mic Clint: 34.3 µL/min/mg
[6]
  solubility: 20.3 µM (≈ 8.84 µg/mL)

## Nc1ncnn2c(C3CCC(CO)OC3)nc(-c3ccc(Oc4ccccc4)cc3F)c12 (single isomer, unassigned) [Compound 10, Trans-(5-(4-amino-5-(2-fluoro-4-phenoxyphenyl)imidazo[5,1-f][1,2,4]triazin-7-yl)tetrahydro-2H-pyran-2-yl)methanol]
[1]
  hPPB (fu %): 8.1%
[2]
  logD: 3.07
[3]
  IC50: 0.95 nM
[4]
  Maximal Inhibition Level: 98.5%
  IC50: 29 nM
[5]
  Hu Mic Clint: 7.0 µL/min/mg
[6]
  solubility: 20.5 µM (≈ 8.93 µg/mL)

## Nc1ncnn2c(C3CCC(CO)OC3)nc(-c3ccc(Oc4ccccc4)cc3F)c12 (single isomer, unassigned) [Compound 11, Trans-(5-(4-amino-5-(2-fluoro-4-phenoxyphenyl)imidazo[5,1-f][1,2,4]triazin-7-yl)tetrahydro-2H-pyran-2-yl)methanol]
[1]
  hPPB (fu %): 8.9%
[2]
  logD: 3.09
[3]
  IC50: 5.03 nM
[4]
  Maximal Inhibition Level: 99.3%
  IC50: 34.7 nM
[5]
  Hu Mic Clint: 9.3 µL/min/mg
[6]
  solubility: <1.6 µM

## Nc1nccn2c(C3CCC(CO)OC3)nc(-c3ccc(Oc4ccccc4)cc3)c12 (stereo not drawn) [Compound 1, (5-(8-amino-1-(4-phenoxyphenyl)imidazo[1,5-a]pyrazin-3-yl)tetrahydro-2H-pyran-2-yl)methanol]
[1]
  fraction unbound at 18 h, 5 μM: 0.098
[2]
  logD at 2 h: 3.14
[3]
  IC50: 1.06 nM
[4]
  Maximal Inhibition Level: 97.9%
  IC50: 18.9 nM
[5]
  microsomal CLint: 44.9 µL/min/mg
[6]; kinetic from dmso stock
  solubility: 51.3 µM (≈ 21.4 µg/mL)

## Nc1ncnn2c(C3CCC(CO)OC3)nc(-c3ccc(Oc4ccccc4)c(F)c3F)c12 (stereo not drawn) [Compound 12, (5-(4-amino-5-(2,3-difluoro-4-phenoxyphenyl)imidazo[1,5-f][1,2,4]triazin-7-yl)tetrahydro-2H-pyran-2-yl)methanol]
[1]
  fraction unbound at 18 h, 5 μM: 0.074
[2]
  logD at 2 h: 3.18
[3]
  IC50: 0.27 nM
[4]
  Maximal Inhibition Level: 97.0%
  IC50: 23.2 nM
[5]
  microsomal CLint: < 3 µL/min/mg
[6]
  solubility: 45.7 µM (≈ 20.7 µg/mL)
